Laboratory results published in patent publication US20150133509A1, “TREE TRUNK INJECTION” (NIPPON SODA CO., LTD., priority 2012, published 2015).
Where two headings read alike, the source gives them in different places.

What was measured:
[1] = tested on: Raffaelea quercivora; test: Flat plate antifungal test (PDA medium); type: cell-based; settings: for inhibition at 0.1 ppm / inhibition at 1 ppm / inhibition at 10 ppm / inhibition at 100 ppm / inhibition at 0.01 ppm: Dryadomyces quercivorus, read-out: Inhibition rate of hyphal elongation; for antifungal effect on Raffaelea quercivora at low concentrations: concentrations of less than about 1 ppm; for inhibition at 0.01 ppm: 0.01 ppm in PDA medium
Procedure: The tree trunk injection agents was obtained by dissolving triflumizole to be each concentration of 100 ppm 10 ppm, 1 ppm, 0.1 pmm, and 0.01 ppm in solution for PDA (potato dextrose agar) medium. These tree trunk injection agents were poured into Petri dishes with inner diameter of 9 cm, and allowed to solidify to produce plate mediums with diameter of 9 cm. In this medium, the flora disk of Raffaelea quercivora was plated. This was cultured statically for 3 days to 4 days at 25° C. Then, the diameter of the flora was measured, and the inhibition rate of hyphal elongation was calculated. The inhibition rate of hyphal elongation (%) was calculated based on the formula: ((flora diameter of untreated group−flora diameter of medium containing triflumizole)/flora diameter of untreated group)×100.

[2] = tested on: fungi which cause Laurel wilt; settings: Non-Patent Document 1; cited from earlier work
[3] = 1 ppm in PDA medium, 3 to 4 days at 25° C.
[4] = 10 ppm in PDA medium, 3 to 4 days at 25° C.
[5] = 100 ppm in PDA medium, 3 to 4 days at 25° C.
[6] = 0.1 ppm in PDA medium, 3 to 4 days at 25° C.

| SMILES | inhibition at 0.1 ppm [1] [%] | inhibition at 1 ppm [1] [%] | inhibition at 10 ppm [1] [%] | inhibition at 100 ppm [1] [%] | antifungal effect on Raffaelea quercivora at low concentrations [1] | inhibition at 1 ppm [1, 3] [%] | inhibition at 10 ppm [1, 4] [%] | inhibition at 100 ppm [1, 5] [%] | effectiveness for fungi which cause Laurel wilt [2] | inhibition at 0.01 ppm ([1]; 3 to 4 days at 25° C.) [%] | inhibition at 0.1 ppm [1, 6] [%] |
| --- | --- | --- | --- | --- | --- | --- | --- | --- | --- | --- | --- |
| O=CNC(N1CCN(C(NC=O)C(Cl)(Cl)Cl)CC1)C(Cl)(Cl)Cl (stereo not shown) [triforine] | 0 | 0 | 26 | 100 | not exhibited any antifungal effect | – | – | – | – | – | – |
| CCCCC(C#N)(Cn1cncn1)c1ccc(Cl)cc1 (stereo not shown) [myclobutanil] | – | – | – | – | not exhibited any antifungal effect | 44 | 96 | 100 | – | – | – |
| CCCC1COC(Cn2cncn2)(c2ccc(Cl)cc2Cl)O1 (stereo not shown) [propiconazole] | – | – | – | – | – | – | – | – | highly effective | – | – |
| CC1(C)CCC(Cc2ccc(Cl)cc2)C1(O)Cn1cncn1 (stereo not shown) [metconazole] | – | – | – | – | – | 97 | 98 | 100 | – | 35 | 59 |
| CCCCC(O)(Cn1cncn1)c1ccc(Cl)cc1Cl (stereo not shown) [hexaconazole] | – | – | – | – | not exhibited any antifungal effect | 33 | 98 | 100 | – | – | – |
| CCCOC/C(=N\c1ccc(Cl)cc1C(F)(F)F)n1ccnc1 [triflumizole] | – | – | – | – | – | 96 | 100 | 100 | – | 25 | 95 |
| FC(F)C(F)(F)OCC(Cn1cncn1)c1ccc(Cl)cc1Cl (stereo not shown) [tetraconazole] | – | – | – | – | not exhibited any antifungal effect | 60 | 100 | 100 | – | – | – |
